Values quoted from earlier work in patent US20040157836A1, “Sulfonamides having antiangiogenic and anticancer activity” (priority 2002, published 2004).

Molecular target: type 2-methionine aminopeptidase (MetAP-2) (Homo sapiens, UniProt P50579)
Conditions: reported in Proc. Natl. Acad. Sci. USA 94: 6099-6103 (1997) and Chemistry and Biology, 4(6): 461-471 (1997)

Sequence of type 2-methionine aminopeptidase (MetAP-2) (P50579 whole entry, species assumed): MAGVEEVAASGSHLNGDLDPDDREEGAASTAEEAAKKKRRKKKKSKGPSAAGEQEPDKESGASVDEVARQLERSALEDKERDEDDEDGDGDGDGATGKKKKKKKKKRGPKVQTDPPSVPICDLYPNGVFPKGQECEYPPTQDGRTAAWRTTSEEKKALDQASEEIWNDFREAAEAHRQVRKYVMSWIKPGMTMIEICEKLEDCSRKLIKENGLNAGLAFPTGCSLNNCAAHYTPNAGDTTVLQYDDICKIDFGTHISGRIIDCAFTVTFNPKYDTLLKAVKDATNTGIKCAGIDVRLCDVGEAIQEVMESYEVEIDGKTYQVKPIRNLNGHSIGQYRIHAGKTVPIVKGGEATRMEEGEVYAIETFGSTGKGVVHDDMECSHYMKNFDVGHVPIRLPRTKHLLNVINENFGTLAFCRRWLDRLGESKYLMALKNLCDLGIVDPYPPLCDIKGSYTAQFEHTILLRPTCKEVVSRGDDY

## CO[C@@H]1[C@H](OC(=O)NC(=O)CCl)CC[C@]2(CO2)[C@H]1[C@@]1(C)O[C@@H]1CC=C(C)C [AGM-1470]
  bind to type 2-methionine aminopeptidase (MetAP-2): bind
